Data from patent US20210000815A1, “PHARMACOKINETIC ENHANCEMENT OF EZH2 INHIBITORS THROUGH COMBINATION THERAPIES” (Constellation Pharmaceuticals, Inc., priority 2017, published 2021).
Entries after “also recorded” stand apart in the source; their conditions may differ.

Key:
[1] = Single-dose pharmacokinetics of Compound 1 with or without cobicistat pretreatment in healthy subjects; type: in vivo, human
Protocol: (§1) Healthy subjects were treated with Compound 1 with or without pretreatment with cobicistat. A single 400 mg dose of Compound 1 was administered under fasted conditions. There was a 7-day washout between administrations of the two single doses of Compound 1. Compound 1 was administered alone on Day 1 of Period 1 and administered in the presence of cobicistat on Day 1 of Period 2. Cobicistat was administered at a dose of 150 mg once daily for three days, with the third dose preceding the single dose of Compound 1 by two hours. Blood samples were collected for pharmacokinetic analysis of Compound 1 on Day 1 of each period at the following time points 0 (predose), 0.5, 1, 1.5, 2, 3, 4, 6, 8, 10, and 24 hours after the single dose of Compound 1.

[2] = Adverse events in healthy subjects treated with Compound 1 with and without cobicistat; type: in vivo, human
Protocol: as §1
All six subjects were males between the ages of 31 and 52 years. Three of the 6 subjects (50%) treated with Compound 1 with and without cobicistat reported a total of 6 adverse events. Diarrhea, reported in 2 subjects, was the only adverse event reported by more than one subject. The other adverse events reported by a single subject each included: abdominal pain, back pain, groin pain, and upper respiratory tract infection. Three of the 6 adverse events were considered to be related to study drug: concurrent events of diarrhea and abdominal pain and the other case of diarrhea. All adverse events were reported in Period 2, after dosing of all study drugs had been completed.

[3] = Exposure of Compound 1 upon multiple-dose administration; type: in vivo
CYP3A = test: Metabolism by and induction of hepatic enzyme CYP3A; type: in vitro ADME
[4] = single 400 mg Compound 1 with cobicistat 150 mg pretreatment vs alone
[5] = single 400 mg Compound 1 with cobicistat 150 mg pretreatment vs alone, lower bound over all subjects
[6] = 6 healthy male subjects, Compound 1 with and without cobicistat

half-life ([1]; male, human, plasma, oral, all subjects treated with Compound 1 and cobicistat): < 5 h
Clearance decrease in the presence of cobicistat [1, 4]: 6.9 fold
Effect of cobicistat on Tmax [1, 4]: unaffected
AUC increase in the presence of cobicistat, all subjects (least) [1, 5]: ≥ 4.9 fold
Cmax increase in the presence of cobicistat, all subjects (least) [1, 5]: ≥ 2.8 fold
Cmin increase in the presence of cobicistat, all subjects (least) [1, 5]: ≥ 19 fold
Exposure of Compound 1 400 mg with cobicistat 150 mg in healthy subjects compared with single 1600 mg dose of Compound 1 alone in patients with lymphoma ([1]; single dose): remarkably similar
Reduction in AUC with multiple doses [3]: approximately 60%
CYP3A induction (CYP3A): stronger inducer of CYP3A
Structure (SMILES): COc1cc(C)[nH]c(=O)c1CNC(=O)c1c(C)n([C@H](C)C2CCN(CC(F)(F)F)CC2)c2ccccc12 [Compound 1, (R)—N-((4-methoxy-6-methyl-2-oxo-1,2-dihydropyridin-3-yl)methyl)-2-methyl-1-(1-(1-(2,2,2-trifluoroethyl)piperidin-4-yl)ethyl)-1H-indole-3-carboxamide]
Effect of cobicistat on terminal half-life (T1/2) [1, 4]: unaffected; also recorded: little or no effect
Number of subjects reporting diarrhea [2, 6]: 2 subjects
Subjects reporting adverse events [2, 6]: 50%
Total number of adverse events reported [2, 6]: 6
Severity of adverse events ([2]; with the exception of a moderate case of upper respiratory tract infection): mild in severity
Primary metabolizing enzyme (CYP3A): primarily metabolized by the hepatic enzyme CYP3A
